One may read the melting point as the temperature of the solid-liquid transition.

Here are results for 14 compounds from patent publication US11254702B2, “Thionyl tetrafluoride modified compounds and uses” (The Scripps Research Institute, priority 2016, dated 2022).

Data set [1] has as its system zebrafish embryos. The data set is described as follows: Zebrafish embryo phenotype after incubation with compound. The data set is classed as in vivo. As to conditions: zebrafish embryos treated at concentrations of 10 and 20 μM; micrographic images (FIG. 14 A, B). The protocol:
FIG. 14 provides micrographic images of zebrafish embryos: (A) and (B) Phenotypes generated by incubating zebrafish embryos with Compound 2-23 at various concentration; (C) Lysates from Compound 2-23 treated or untreated embryos at 24 hpf were reacted with biotin-azide, pull-down with streptavidin beads and analyzed using SDS-PAGE.
FIG. 14 provides micrographic images of zebrafish embryos. Panels (A) and (B) illustrate phenotypes generated by incubating zebrafish embryos with Compound 2-23 at various concentrations. […] Panel (C) provides SDS-PAGE images of lysates from Compound 2-23 treated or untreated embryos at 24 hours post fertilization (hpf). The lysates were treated with biotin-azide and a copper(I) catalyst to react with the terminal alkyne via a copper-catalyzed azide-alkyne Click reaction and thereby attach biotin to any Compound 2-23 that may have been bound to a protein in the lysate. The biotinated lysate was then pulled-down with streptavidin beads and analyzed using SDS-PAGE.

In turn, `C#CCOC[C@H]1O[C@@H](n2cc(C)c(=O)[nH]c2=O)C[C@@H]1N=S(=O)(F)N1CCC1` (some centres unmarked) registered a melting point of 105 to 106 °C.
Still for that read-out and setting: for `C#Cc1ccc(N=S(=O)(F)N2CCC(=O)CC2)cc1` (centres unmarked) the value was 70 °C; for `C#CCOC[C@H]1O[C@@H](n2cc(C)c(=O)[nH]c2=O)C[C@@H]1N=S(=O)(F)Oc1ccc2c(c1)CC[C@H]1C3CCC(=O)[C@@]3(C)CC[C@H]21` (some centres unmarked), 94 to 95 °C.
For the compound `C#CCOC[C@H]1O[C@@H](n2cc(C)c(=O)[nH]c2=O)C[C@H]1N=S(=O)(F)F` [Compound 2-23, ((2S,3S,5R)-5-(5-Methyl-2,4-dioxo-3,4-dihydropyrimidin-1(2H)-yl)-2-((prop-2-yn-1-yloxy)methyl)tetrahydrofuran-3-yl)sulfurimidoyl Difluoride], in data set [1], the “phenotypical changes in the embryos” value is on record as “significant phenotypical changes”.
Consider `O=C1[C@@H]([C@H](c2ccccc2)N2CCN(c3ccc(F)cc3)CC2)N=S(=O)(F)N1C1CCCCC1` (stereo partly drawn) [Compound 2-25, (4R)-2-Cyclohexyl-1-fluoro-4-((S)-(4-(4-fluorophenyl)piperazin-1-yl)(phenyl)methyl)-2,4-dihydro-3H-1λ^6,2,5-thiadiazol-3-one 1-oxide], for which the melting point fell in the range of 139 to 140 °C.
The same measure, in the same setting: the result for `C#Cc1ccc(NS(=O)(=O)NCC(=O)O)cc1` [Compound 4-1, (N-(4-ethynylphenyl)sulfamoyl)glycine] reads 113 to 115 °C; that for `C#Cc1ccc(NS(=O)(=O)N[C@@H](C)C(=O)O)cc1` [Compound 4-2, (N-(4-Ethynylphenyl)sulfamoyl)-L-alanine], 163 to 165 °C.
Still for that read-out and setting: the result for `C#Cc1ccc(N=S(=O)(F)Oc2ccc(-c3ccccc3)cc2)cc1` (centres unmarked) [Compound 6-1, [1,1′-biphenyl]-4-yl (4-ethynylphenyl)sulfurofluoridoimidate] reads 94 to 95 °C.
Still for that read-out and setting: for `C#Cc1ccc(N=S(=O)(Oc2ccc(-c3ccccc3)cc2)Oc2ccc(-c3ccccc3)cc2)cc1` [Compound 7-2, Di([1,1′-biphenyl]-4-yl) (4-ethynylphenyl)sulfurimidate] the value was 129 °C.
The compound `C#Cc1ccc(N=S2(=O)Oc3ccccc3O2)cc1` [Compound 9-1, 2-((4-Ethynylphenyl)imino)-2λ^4-benzo[d][1,3,2]dioxathiole 2-oxide] registered a melting point of 97 to 98 °C.
Still for that read-out and setting: for `C#Cc1ccc(N=S2(=O)Oc3c(C)ccc(C)c3O2)cc1` [Compound 9-2, 2-((4-Ethynylphenyl)imino)-4,7-dimethyl-2λ^4-benzo[d][1,3,2]dioxathiole 2-oxide] the value was 101 °C; for `C#Cc1ccc(N=S2(=O)Oc3ccccc3-c3ccccc3O2)cc1` [Compound 9-4, 6-((4-Ethynylphenyl)imino)-6λ^4-dibenzo[d,f][1,3,2]dioxathiepine 6-oxide], 138 to 139 °C.
On the same count and under the same terms, the result for `C#Cc1ccc(N=S(=O)(Oc2ccccc2O)N2CCCCC2)cc1` (centres unmarked) [Compound 10-1, 2-Hydroxyphenyl N-(4-ethynylphenyl)piperidine-1-sulfonimidate] reads 93 °C; that for `C#Cc1ccc(N=S(=O)(Oc2ccccc2O)N2CCN(C(=O)OC(C)(C)C)CC2)cc1` (stereo not drawn) [Compound 10-2, tert-Butyl 4-(N-(4-ethynylphenyl)-S-(2-hydroxyphenoxy)sulfonimidoyl)piperazine-1-carboxylate], 139 to 141 °C.
